According to ChEMBL document CHEMBL1201862, “PubChem BioAssay data set” (2004):
Values belong to the compound of their own block, whether it stands above or below them. Calls of active or inactive are those of the source.

Columns and labels:
[1] = viability loss in HepG2 liver cells – cell-based, ATP luminescence, cherry-pick, set 6, cytotoxicity control, dose response (AID 1053125); assay type: functional
[2] = cells; details: HEK293
[3] = molecular target: NAD-dependent protein deacylase sirtuin-5, mitochondrial (Homo sapiens, UniProt Q9NXA8); assay: sirtuin-5 deacylation blockers, concentration series – biochemical, fluorescence imaging, cherry-pick, set 5, dose response (AID 720591);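 also: desuccinylation of succinyl peptide AMC substrate read as fluorescence after trypsin release; potency of inhibitors that lower fluorescence and may act on trypsin instead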
[4] = P. falciparum Dd2 growth inhibitors, dose response, SYBR Green, cherry-picked samples (AID 1159567); assay type: functional, cell-based
[5] = toxicity to human hepatoma HepG2 cells – cell-based, cherry-picked samples, cytotoxicity control, dose response (AID 1159577); assay type: functional
[6] = molecular target: Paired box protein Pax-8 (Homo sapiens, UniProt Q06710); assay: PAX8 transcriptional activity inhibition in RMG-I – RMG-I cells, luciferase, cherry-pick, dose response (AID 687027); assay type: functional, cell-based;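 also: luciferase reporter driven by Pax8 target thyroperoxidase promoter measured by SteadyGlo luminescence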
[7] = OVCAR-3 cell viability loss – plate reader, dry powder samples, PAX8 inhibitor project, dose response (AID 743044); assay type: functional, cell-based
[8] = IGROV1 cell killing – plate reader, dry powder samples, PAX8 inhibitor project, dose response (AID 743043); assay type: functional, cell-based; details: IGROV-1
[9] = OVCAR8 cell viability loss – plate reader, dry powder samples, PAX8 project, dose response (AID 743197); assay type: functional, cell-based; details: OVCAR-8
[10] = viability inhibitors of stage V gametocytes – luminescence, dose response (AID 1117278); assay type: functional, cell-based;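 also: gametocytes exposed to compound for 24 hours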
[11] = viability loss in human Jurkat cells – cell-based, luminescence, cytotoxicity control for P. falciparum gametocyte viability project, dose response (AID 1117277); assay type: functional;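 also: potency reflects loss of cellular ATP meaning fewer viable cells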
[12] = inhibitors of TRPM1-promoter reporter in SK-MEL-5 – cell-based, luciferase, dry powder, set 9, MITF inhibitor project, dose response (AID 651588); assay type: functional
[13] = cytotoxicity in MITF-independent A375 cells – cell-based, CellTiter-Glo luminescence, dry powder, set 4, counter-screen for MITF inhibitor project, dose response (AID 624364); assay type: functional; details: A-375;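 also: A375 melanoma cells are MITF independent so this is a counter screen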
[14] = viability loss in MITF-independent A375 cells – cell-based, CellTiter-Glo luminescence, dry powder, set 7, counter-screen for MITF inhibitor project, dose response (AID 624490); assay type: functional; details: A-375
[15] = MITF Orthogonal Assay: MALME3 CTG Assay Measured in Cell-Based System Using Plate Reader - 2084-04_Inhibitor_Dose_DryPowder_Activity_Set6.; assay type: functional; details: MALME-3
[16] = growth inhibition of SK-MEL-5 melanoma cells – cell-based, CellTiter-Glo luminescence, dry powder, set 8, orthogonal assay for MITF inhibitor project, dose response (AID 651586); assay type: functional
[17] = growth inhibition of MALME3 cells – cell-based, CellTiter-Glo luminescence, dry powder, set 5, orthogonal assay for MITF inhibitor project, dose response (AID 651584); assay type: functional; details: MALME-3
[18] = cytotoxicity in melanoma parental cells – cell-based, CellTiter-Glo, dry powder, set 6, MITF inhibitor project, dose response (AID 624429); assay type: functional; details: SK-MEL-5
[19] = MITF Orthogonal Assay: SK-MEL-5 CTG Assay Measured in Cell-Based System Using Plate Reader - 2084-02_Inhibitor_Dose_DryPowder_Activity_Set5.; assay type: functional
[20] = viability loss in MITF-independent A375 cells – cell-based, CellTiter-Glo luminescence, dry powder, set 6, counter-screen for MITF inhibitor project, dose response (AID 624488); assay type: functional; details: A-375
[21] = cytotoxicity in MITF-independent A375 cells – cell-based, CellTiter-Glo luminescence, dry powder, set 9, counter-screen for MITF modulator project, dose response (AID 651591); assay type: functional; details: A-375
[22] = MITF Measured in Cell-Based System Using Plate Reader - 2084-01_Inhibitor_Dose_DryPowder_Activity_Set6.; assay type: functional
[23] = MITF Measured in Cell-Based System Using Plate Reader - 2084-01_Inhibitor_Dose_DryPowder_Activity_Set7.; assay type: functional
[24] = melanocyte viability loss, MITF-dependent cells, cell-based, plate reader, dry powder, cytotoxicity control, dose response (AID 651920); assay type: functional
[25] = reduced cellular PGC1a acetyl-lysine signal – cell-based, cherry-picked samples, dose response (AID 720514); assay type: functional;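 also: potency may reflect raised or lowered acetylation signal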
[26] = general cell-killing toxicity readout – plate reader, dry powder samples, cytotoxicity control for PAX8 inhibitor project, dose response (AID 743021); assay type: functional, cell-based
[27] = system: Escherichia coli; assay: microbe, parasite or virus in culture
[28] = system: Escherichia coli; assay: microbe, parasite or virus in culture; remark: listed apart in the source
[29] = molecular target: T1, Oxysterols receptor LXR-beta (Homo sapiens, UniProt P55055); assay type: functional, cell-based;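 also: Cell-based luminescence dose-response assay of agonist activity at LXR, run as a confirmatory counterscreen to a daf-12 agonist screen; HEK293 cells with Gal4-LXR fusion and GAL4-driven luciferase reporter; agonist potency from rising luciferase signal of a Gal4-LXR reporter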
T1 sequence (P55055 whole entry): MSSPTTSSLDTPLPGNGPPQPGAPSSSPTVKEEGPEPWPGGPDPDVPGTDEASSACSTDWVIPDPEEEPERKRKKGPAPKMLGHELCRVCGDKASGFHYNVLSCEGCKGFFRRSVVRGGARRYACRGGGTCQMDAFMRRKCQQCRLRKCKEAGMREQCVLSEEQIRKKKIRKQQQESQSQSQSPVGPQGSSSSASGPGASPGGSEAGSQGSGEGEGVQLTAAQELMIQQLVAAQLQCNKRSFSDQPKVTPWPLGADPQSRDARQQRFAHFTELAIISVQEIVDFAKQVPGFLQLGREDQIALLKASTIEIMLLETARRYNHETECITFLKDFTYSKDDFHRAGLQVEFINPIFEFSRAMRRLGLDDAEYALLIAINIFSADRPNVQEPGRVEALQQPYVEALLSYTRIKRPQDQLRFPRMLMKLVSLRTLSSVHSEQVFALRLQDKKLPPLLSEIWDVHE

[30] = cells
[31] = inhibition of Env-driven cell fusion – HIV entry, plate reader, dry powder, dose response (AID 687023); assay type: functional, cell-based
[32] = Luminescence Cell-Based Dose Retest to Confirm Inhibitors of Cancer Stem Cells. [Related pubchem assays (depositor defined):AID2717, AID2721]; assay type: functional; details: Homo sapiens
[33] = Fluorescence-based cell-based high throughput dose response assay for inhibitors of the interaction of nucleotide-binding oligomerization domain containing 2 (NOD2) and the receptor-interacting serine-threonine kinase 2 (RIPK2).; assay type: functional; details: Homo sapiens
[34] = A549 cell cytotoxicity, dose response, cytotoxicity control, plate reader, cherry-pick, antagonist series (AID 743412); assay type: functional, cell-based
[35] = toxicity toward HepG2 liver cells – cell-based, plate reader, cherry-pick, antagonist series, cytotoxicity control, dose response (AID 743416); assay type: functional
[36] = blockers of bursicon-stimulated LGR2 cAMP reporter – cell-based, HEK293, CRE-luciferase reporter, cherry pick, set 2, dose response (AID 743343); assay type: functional;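 also: transfected cells were stimulated with diluted bursicon conditioned medium after compound addition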
[37] = blockade of melanocortin 4 receptor signaling – cell-based, plate reader, cherry pick, counter-screen for LGR2 antagonist project, dose response (AID 743444); assay type: functional;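 also: transfected HEK 293 cells stimulated with alpha-MSH peptide; potency of inhibitors of the alpha-MSH evoked signal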
[38] = viability loss in HEK293 cells – cell-based, plate reader, cherry-picked samples, cytotoxicity control, dose response (AID 743446); assay type: functional

Sequence of Paired box protein Pax-8 (Q06710 whole entry): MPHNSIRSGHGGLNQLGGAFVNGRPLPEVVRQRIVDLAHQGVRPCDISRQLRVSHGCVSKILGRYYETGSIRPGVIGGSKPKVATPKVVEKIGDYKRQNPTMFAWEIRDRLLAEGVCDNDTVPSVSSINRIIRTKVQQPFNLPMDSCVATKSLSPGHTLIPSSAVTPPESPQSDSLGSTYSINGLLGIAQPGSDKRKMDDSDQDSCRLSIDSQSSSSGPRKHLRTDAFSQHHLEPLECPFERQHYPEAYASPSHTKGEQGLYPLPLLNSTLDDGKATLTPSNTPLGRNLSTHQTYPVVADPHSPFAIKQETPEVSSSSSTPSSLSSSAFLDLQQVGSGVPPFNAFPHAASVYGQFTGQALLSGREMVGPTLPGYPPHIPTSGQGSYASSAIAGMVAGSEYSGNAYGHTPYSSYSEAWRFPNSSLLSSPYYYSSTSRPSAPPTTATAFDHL
Sequence of NAD-dependent protein deacylase sirtuin-5, mitochondrial (Q9NXA8 whole entry): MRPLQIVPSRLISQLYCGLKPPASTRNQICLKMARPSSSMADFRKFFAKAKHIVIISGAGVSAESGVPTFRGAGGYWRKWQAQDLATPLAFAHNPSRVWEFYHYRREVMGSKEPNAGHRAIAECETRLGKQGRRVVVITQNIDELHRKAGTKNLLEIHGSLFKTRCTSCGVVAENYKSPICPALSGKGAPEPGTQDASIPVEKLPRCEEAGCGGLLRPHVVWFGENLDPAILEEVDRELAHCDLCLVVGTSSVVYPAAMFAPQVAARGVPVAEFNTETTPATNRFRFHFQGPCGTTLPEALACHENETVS

Structure (SMILES): COc1ccc(CNC(=O)c2sc(=O)n(Cc3ccc(C)cc3)c2C)cc1OC
AC50 [1]: > 52 µM (inactive)
AC50 [2]: > 52 µM (inactive)

AC50 [3]: > 30 µM (inactive)
Structure (SMILES): COc1ccccc1N1CCN(C(C)C(=O)N2CC(C)OC(C)C2)CC1 (centres undefined)

Structure (SMILES): CO[C@H]1CN(C)C(=O)c2cc(NC(=O)c3ccc(Oc4ccccc4)cc3)ccc2OC[C@@H](C)NC[C@@H]1C
AC50 [4]: 6.05 µM (active)
AC50 [5]: > 39 µM (inactive)

Structure (SMILES): C[C@H]1CCCCO[C@H](CN(C)Cc2ccc(Cl)c(Cl)c2)[C@@H](C)CN([C@@H](C)CO)C(=O)c2cc(NC(=O)Nc3ccc(C(F)(F)F)cc3)ccc2O1
AC50 [6]: 9.26 µM (active)
AC50 [7]: 23.4 µM (active)
AC50 [8]: 59 µM (active)
AC50 [9]: 50.7 µM (active)

Structure (SMILES): COc1ccc(-c2[nH]ncc2-c2csc(C)n2)c(O)c1
IC50 [10]: > 109 µM (inactive)
IC50 [11]: > 83.3 µM (inactive)

Structure (SMILES): O=C1C(NS(=O)(=O)c2cccs2)=C(c2ccccc2)C(=O)c2ccccc21
AC50 [12]: > 70 µM (inactive)
AC50 [13]: > 70 µM (inactive)
AC50 [14]: > 70 µM (inactive)
AC50 [15]: > 70 µM (inactive)
AC50 [16]: > 70 µM (inactive)
AC50 [17]: > 70 µM (inactive)
AC50 [18]: > 70 µM (inactive)
AC50 [19]: 65.9 µM (active)
AC50 [20]: > 70 µM (inactive)
AC50 [21]: > 70 µM (inactive)
AC50 [22]: 45.7 µM (active)
AC50 [23]: 39.1 µM (active)
AC50 [24]: > 70 µM (inactive)

Structure (SMILES): CC(C)CN1CCN(C(=O)COC(=O)c2ccc(S(C)(=O)=O)c([N+](=O)[O-])c2)CC1
AC50 [6]: 13 µM (active)
AC50 [25]: 10.6 µM (active)
AC50 [26]: 22.7 µM (active)

Structure (SMILES): Nc1ccccc1SCc1cn2ccccc2n1
AC50 [3]: 20.6 µM (active)
AC50 [27]: 19.9 µM (active)
AC50 [28]: 7.26 µM (active)

Structure (SMILES): NC(=O)c1c(NC(=O)c2ccccc2)sc2c1CCCC2
EC50 [29]: > 67.6 µM (inactive)
EC50 [30]: > 67.6 µM (inactive)

Structure (SMILES): C/C=C/c1ccc([C@@H]2[C@@H]3CN(Cc4ccc5c(c4)OCO5)C[C@H]2N3)cc1
AC50 [4]: 4.09 µM (active)
AC50 [5]: 11.8 µM (active)

Structure (SMILES): C[C@@H]1CCCCO[C@H](CN(C)Cc2ccc(Cl)c(Cl)c2)[C@@H](C)CN([C@@H](C)CO)C(=O)c2cc(NC(=O)Nc3ccc(C(F)(F)F)cc3)ccc2O1
AC50 [6]: 4.2 µM (active)
AC50 [7]: 40 µM (active)
AC50 [9]: > 70 µM (inactive)

Structure (SMILES): Cc1noc(C)c1S(=O)(=O)Nc1cccc2c1O[C@@H](CN(C)Cc1ccc(C(F)(F)F)cc1)[C@@H](C)CN([C@@H](C)CO)C2=O
AC50 [31]: 53.5 µM (active)

Structure (SMILES): O=C(Cn1ncc(Cl)c(Cl)c1=O)NC(=O)NC1CCCCC1
AC50 [32]: 1.81 µM (active)
IC50 [33]: 3.13 µM (active)
AC50 [6]: 2.85 µM (active)
AC50 [25]: 4.83 µM (active)
AC50 [34]: 7.17 µM (active)
AC50 [35]: 7.9 µM (active)
AC50 [36]: 25.8 µM (active)
AC50 [37]: 26.2 µM (active)
AC50 [38]: 7.89 µM (active)

Structure (SMILES): CC(C)c1nc2oc3c(O)ncnc3c2c2c1CCC2
IC50 [10]: > 109 µM (inactive)
IC50 [11]: > 83.3 µM (inactive)
